Experimental data published in US12122763B2, “Substituted piperidines for androgen receptor degradation” (UBIX THERAPEUTICS, INC., priority 2020, dated 2024).

Molecular target: T1, Androgen Receptor (AR) protein (Homo sapiens, UniProt P10275, T878A)
T1 construct: endogenous in cells; host or cells: LNCaP
Assay: Androgen Receptor (AR) protein degradation assay in LNCaP cells, western blotting
Assay type: cell-based
Conditions: 20 h; for inhibition at 0.01 µM: 0.01 μM compound; for inhibition at 0.1 µM: 0.1 μM compound; for inhibition at 1 µM: 1 μM compound
Summary of the method: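 AR protein level was detected by western blot (ECL) against GAPDH or β-actin controls, with 8 μg lysate protein loaded per lane after BCA quantification. Lysates came from LNCaP cells exposed to test compound for 20 h, following 3 days of growth in RPMI/10% FBS.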

T1 sequence (P10275 whole entry T878A): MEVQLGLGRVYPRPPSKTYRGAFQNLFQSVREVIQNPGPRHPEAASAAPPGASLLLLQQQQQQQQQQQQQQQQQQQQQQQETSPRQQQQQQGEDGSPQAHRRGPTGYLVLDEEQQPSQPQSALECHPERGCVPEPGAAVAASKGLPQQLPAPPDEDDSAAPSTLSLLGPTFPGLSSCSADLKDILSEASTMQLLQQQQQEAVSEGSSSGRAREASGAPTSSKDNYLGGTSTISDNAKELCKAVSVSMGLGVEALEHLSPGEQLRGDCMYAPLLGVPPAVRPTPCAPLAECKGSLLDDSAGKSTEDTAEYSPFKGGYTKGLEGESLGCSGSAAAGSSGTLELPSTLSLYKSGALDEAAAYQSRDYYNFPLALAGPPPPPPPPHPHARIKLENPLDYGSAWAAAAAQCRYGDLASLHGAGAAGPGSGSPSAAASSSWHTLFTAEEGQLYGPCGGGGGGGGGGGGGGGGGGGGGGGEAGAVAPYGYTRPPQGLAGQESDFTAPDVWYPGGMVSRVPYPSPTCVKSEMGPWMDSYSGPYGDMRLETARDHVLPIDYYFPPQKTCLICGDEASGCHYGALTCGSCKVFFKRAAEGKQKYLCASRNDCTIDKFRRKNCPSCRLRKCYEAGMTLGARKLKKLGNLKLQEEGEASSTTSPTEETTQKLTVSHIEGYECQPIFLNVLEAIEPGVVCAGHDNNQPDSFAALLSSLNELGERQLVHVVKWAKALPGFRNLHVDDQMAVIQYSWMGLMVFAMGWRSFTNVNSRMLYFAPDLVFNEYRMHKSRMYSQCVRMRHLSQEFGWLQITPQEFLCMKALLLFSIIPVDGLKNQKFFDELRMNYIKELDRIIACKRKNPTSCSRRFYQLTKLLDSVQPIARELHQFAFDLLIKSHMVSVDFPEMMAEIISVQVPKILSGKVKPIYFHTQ
T1 sequence (Q96SW2 whole entry partner): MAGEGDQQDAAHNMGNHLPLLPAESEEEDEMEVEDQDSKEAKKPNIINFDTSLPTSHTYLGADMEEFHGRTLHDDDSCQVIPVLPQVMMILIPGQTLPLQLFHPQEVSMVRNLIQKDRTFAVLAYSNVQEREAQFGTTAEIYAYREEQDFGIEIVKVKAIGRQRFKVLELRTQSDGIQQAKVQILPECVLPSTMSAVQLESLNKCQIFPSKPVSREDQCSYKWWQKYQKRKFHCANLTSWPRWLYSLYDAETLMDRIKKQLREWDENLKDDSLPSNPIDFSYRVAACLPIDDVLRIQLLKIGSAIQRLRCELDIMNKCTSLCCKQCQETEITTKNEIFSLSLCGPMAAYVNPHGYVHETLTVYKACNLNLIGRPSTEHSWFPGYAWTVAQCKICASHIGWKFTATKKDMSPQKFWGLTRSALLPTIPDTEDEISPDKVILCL

| SMILES | inhibition at 0.01 µM | inhibition at 0.1 µM | inhibition at 1 µM |
| --- | --- | --- | --- |
| N#Cc1ccc(N2CCC(C(=O)Nc3ccc(N4CCC(OCCN5CCN(c6ccc7c(c6)C(=O)N(C6CCC(=O)NC6=O)C7=O)CC5)CC4)cn3)CC2)cc1C(F)(F)F (stereo not drawn) [Example 150, 1-(4-cyano-3-(trifluoromethyl)phenyl)-N-(5-(4-(2-(4-(2-(2,6-dioxopiperidin-3-yl)-1,3-dioxoisoindolin-5-yl)piperazin-1-yl)ethoxy)piperidin-1-yl)pyridin-2-yl)piperidine-4-carboxamide] | 55% | 97% | 99% |
| N#Cc1ccc(N2CCC(C(=O)Nc3ccc(N4CCC(OCCN5CCN(c6ccc7c(c6)C(=O)N(C6CCC(=O)NC6=O)C7=O)CC5)CC4)cn3)CC2)cc1Cl (stereo not drawn) [Example 151, 1-(3-chloro-4-cyanophenyl)-N-(5-(4-(2-(4-(2-(2,6-dioxopiperidin-3-yl)-1,3-dioxoisoindolin-5-yl)piperazin-1-yl)ethoxy)piperidin-1-yl)pyridin-2-yl)piperidine-4-carboxamide] | -14% | 76% | 92% |
| N#Cc1ccc(N2CCC(C(=O)Nc3ccc(N4CCC(OCCN5CCN(c6cccc7c6C(=O)N(C6CCC(=O)NC6=O)C7=O)CC5)CC4)cn3)CC2)cc1C(F)(F)F (stereo not drawn) [Example 152, 1-(4-cyano-3-(trifluoromethyl)phenyl)-N-(5-(4-(2-(4-(2-(2,6-dioxopiperidin-3-yl)-1,3-dioxoisoindolin-4-yl)piperazin-1-yl)ethoxy)piperidin-1-yl)pyridin-2-yl)piperidine-4-carboxamide] | -46% | 28% | 29% |
| N#Cc1ccc(N2CCC(C(=O)Nc3ccc(N4CCC(O)(CCN5CCN(c6ccc7c(c6)C(=O)N(C6CCC(=O)NC6=O)C7=O)CC5)CC4)cn3)CC2)cc1C(F)(F)F (stereo not drawn) [Example 153, 1-(4-cyano-3-(trifluoromethyl)phenyl)-N-(5-(4-(2-(4-(2-(2,6-dioxopiperidin-3-yl)-1,3-dioxoisoindolin-5-yl)piperazin-1-yl)ethyl)-4-hydroxypiperidin-1-yl)pyridin-2-yl)piperidine-4-carboxamide] | 56% | 95% | 97% |
| N#Cc1ccc(N2CCC(C(=O)Nc3ccc(N4CCC(C(=O)N5CC6(CCN(c7ccc8c(c7)C(=O)N(C7CCC(=O)NC7=O)C8=O)CC6)C5)CC4)cn3)CC2)cc1C(F)(F)F (stereo not drawn) [Example 154, 1-(4-cyano-3-(trifluoromethyl)phenyl)-N-(5-(4-(7-(2-(2,6-dioxopiperidin-3-yl)-1,3-dioxoisoindolin-5-yl)-2,7-diazaspiro[3.5]nonane-2-carbonyl)piperidin-1-yl)pyridin-2-yl)piperidine-4-carboxamide] | 26% | 86% | 91% |
| N#Cc1ccc(N2CCC(C(=O)Nc3cnc(N4CCC(CN5CC6(CCN(c7ccc8c(c7)C(=O)N(C7CCC(=O)NC7=O)C8=O)CC6)C5)CC4)cn3)CC2)cc1C(F)(F)F (stereo not drawn) [Example 155, 1-(4-cyano-3-(trifluoromethyl)phenyl)-N-(5-(4-((7-(2-(2,6-dioxopiperidin-3-yl)-1,3-dioxoisoindolin-5-yl)-2,7-diazaspiro[3.5]nonan-2-yl)methyl)piperidin-1-yl)pyrazin-2-yl)piperidine-4-carboxamide] | 38% | 89% | 98% |
| N#Cc1ccc(N2CCC(C(=O)Nc3cnc(N4CCC(CCN5CCN(c6ccc7c(c6)C(=O)N(C6CCC(=O)NC6=O)C7=O)CC5)CC4)cn3)CC2)cc1C(F)(F)F (stereo not drawn) [Example 156, 1-(4-cyano-3-(trifluoromethyl)phenyl)-N-(5-(4-(2-(4-(2-(2,6-dioxopiperidin-3-yl)-1,3-dioxoisoindolin-5-yl)piperazin-1-yl)ethyl)piperidin-1-yl)pyrazin-2-yl)piperidine-4-carboxamide] | 35% | 76% | 96% |
| N#Cc1ccc(N2CCC(C(=O)Nc3ncc(N4CCC(CN5CCN(CC6CCN(c7ccc8c(c7)C(=O)N(C7CCC(=O)NC7=O)C8=O)CC6)CC5)CC4)cn3)CC2)cc1C(F)(F)F (stereo not drawn) [Example 157, 1-(4-cyano-3-(trifluoromethyl)phenyl)-N-(5-(4-((4-((1-(2-(2,6-dioxopiperidin-3-yl)-1,3-dioxoisoindolin-5-yl)piperidin-4-yl)methyl)piperazin-1-yl)methyl)piperidin-1-yl)pyrimidin-2-yl)piperidine-4-carboxamide] | 0% | 33% | 78% |
| N#Cc1ccc(N2CCC(C(=O)Nc3ncc(N4CCC(CN5CCN(C[C@H]6CCN(c7ccc8c(c7)C(=O)N(C7CCC(=O)NC7=O)C8=O)C6)CC5)CC4)cn3)CC2)cc1C(F)(F)F (stereo partly drawn) [Example 158, 1-(4-cyano-3-(trifluoromethyl)phenyl)-N-(5-(4-((4-(((3R)-1-(2-(2,6-dioxopiperidin-3-yl)-1,3-dioxoisoindolin-5-yl)pyrrolidin-3-yl)methyl)piperazin-1-yl)methyl)piperidin-1-yl)pyrimidin-2-yl)piperidine-4-carboxamide] | -7% | 27% | 65% |
| N#Cc1ccc(N2CCC(C(=O)Nc3ncc(N4CCC(CN5CCN(CC6CCN(c7cc8c(cc7F)C(=O)N(C7CCC(=O)NC7=O)C8=O)CC6)CC5)CC4)cn3)CC2)cc1C(F)(F)F (stereo not drawn) [Example 159, 1-(4-cyano-3-(trifluoromethyl)phenyl)-N-(5-(4-((4-((1-(2-(2,6-dioxopiperidin-3-yl)-6-fluoro-1,3-dioxoisoindolin-5-yl)piperidin-4-yl)methyl)piperazin-1-yl)methyl)piperidin-1-yl)pyrimidin-2-yl)piperidine-4-carboxamide] | -16% | -5% | 84% |
| N#Cc1ccc(N2CCC(C(=O)Nc3ncc(N4CCC(CN5CCN(C[C@H]6CCN(c7cc8c(cc7F)C(=O)N(C7CCC(=O)NC7=O)C8=O)C6)CC5)CC4)cn3)CC2)cc1C(F)(F)F (stereo partly drawn) [Example 160, 1-(4-cyano-3-(trifluoromethyl)phenyl)-N-(5-(4-((4-(((3R)-1-(2-(2,6-dioxopiperidin-3-yl)-6-fluoro-1,3-dioxoisoindolin-5-yl)pyrrolidin-3-yl)methyl)piperazin-1-yl)methyl)piperidin-1-yl)pyrimidin-2-yl)piperidine-4-carboxamide] | -19% | 4% | 71% |
| N#Cc1ccc(N2CCC(C(=O)Nc3ccc(CN4CCC(CN5CCN(c6ccc7c(c6)C(=O)N(C6CCC(=O)NC6=O)C7=O)CC5)CC4)cn3)CC2)cc1C(F)(F)F (stereo not drawn) [Example 161, 1-(4-cyano-3-(trifluoromethyl)phenyl)-N-(5-((4-((4-(2-(2,6-dioxopiperidin-3-yl)-1,3-dioxoisoindolin-5-yl)piperazin-1-yl)methyl)piperidin-1-yl)methyl)pyridin-2-yl)piperidine-4-carboxamide] | 9% | 58% | 86% |
